Experimental data published in paper PMC11737796 (PLOS ONE, 2025).
“And” between values parts separate entries of the source, which are not always exact repeats. Equal values may be shown once. Read-outs that look alike come from different tables or passages of the source.

Assays:
[1] = target: T1, recombinant murine RORγt LBD (Mus musculus, UniProt P51450); test: Murine RORγt radioligand competition binding assay; settings: for Mouse ligand binding Response (%): raw points of replicate experiments
T1 construct: 10nM purified HN-AVI-GST-TCS-mRORγ(aa256-516) was mixed with
T1 sequence (P51450 256-516): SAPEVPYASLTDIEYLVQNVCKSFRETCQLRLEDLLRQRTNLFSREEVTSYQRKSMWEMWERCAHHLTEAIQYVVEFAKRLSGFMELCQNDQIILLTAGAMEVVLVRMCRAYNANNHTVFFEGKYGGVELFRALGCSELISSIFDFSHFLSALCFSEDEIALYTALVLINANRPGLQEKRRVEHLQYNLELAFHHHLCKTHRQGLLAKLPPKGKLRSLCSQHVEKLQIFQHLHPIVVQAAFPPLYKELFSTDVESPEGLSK
Protocol: The assay was run in white/clear polystyrene flat-bottom 384-well plates (Greiner, cat. No. 781095). Assays were carried out in 40 μl reaction volumes. 0.125 μl of a fixed concentration range of test ligands dissolved in DMSO were added to assay plates using an acoustic liquid dispenser.
(§1) The raw data from the radio-ligand and co-factor recruitment assays were transformed to % effect using the equation:
(§2) Compound % effect = 100*[(X-min)/(max-min)]
(§3) where X represents the effect in the presence of test compound and max and min are the effects in presence of the maximum and minimum controls respectively.
(§4) The data was plotted to generate concentration response profiles and the concentration-response curves were fitted to the data using the non-linear regression analysis; 4 parameter logistic smart fit method in the Analyser application of the Genedata® Screener software (Genedata, Inc., Basel, Switzerland). […] Ki was calculated from the IC50 value using the equation Ki = IC50/1+[L]/Kd)

[2] = target: T2, human RORα LBD (Homo sapiens, UniProt P35398); test: RORα co-factor recruitment assay; type: biochemical; settings: raw points; for RORa agonism Response (%): agonism mode; for RORa inverse agonism Response (%): inverse agonism mode
T2 construct: 180 nM Protein (His6-tcs-hRORαLBD)
T2 sequence (P35398 272-510 limits assumed): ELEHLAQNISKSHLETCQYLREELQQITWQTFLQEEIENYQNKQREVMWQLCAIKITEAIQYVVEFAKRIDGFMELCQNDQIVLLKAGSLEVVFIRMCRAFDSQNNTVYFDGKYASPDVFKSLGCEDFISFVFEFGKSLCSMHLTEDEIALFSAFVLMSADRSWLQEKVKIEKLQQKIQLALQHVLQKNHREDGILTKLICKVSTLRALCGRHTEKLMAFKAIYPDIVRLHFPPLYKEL
Protocol: The assay was run in black 384 well plates (Greiner: 784900). A 0.2 μl volume of a fixed concentration range of test ligands dissolved in DMSO were added to assay plates using an acoustic liquid dispenser. Two pre-mixes were prepared in falcon tubes. Pre-mix 1 comprised 180 nM Protein (His6-tcs-hRORαLBD) and 8 nM Lance Eu-W1024-anti 6xHis in assay buffer, 50 mM Hepes pH7.4, 100 mM NaCl, 0.1% (w/v) BSA, 1 mM TCEP which was incubated for 30 minutes at room temperature before dispensing 10 μl to assay plates. Then, pre-mix 2 comprising 200 nM biotinylated PGC1alpha peptide and 50 nM streptavidin APC in assay buffer, was prepared and incubated for 30 minutes at room temperature before adding 10 μl to assay plates containing test compound and premix 1. Plates were incubated at room temperature for 1 hour in the dark, prior to reading in a Pherastar multi-mode plate reader (BMG LABTECH) using HTRF filter set (ex 320 nm, em 612 and 665 nm). The FRET signal at 665 nm was divided by the signal at 612 nm and multiplied by 10,000 to generate a signal ratio value for each well.
as §1, §2, §3, §4

[3] = tested on: IL-17A production in primary human Th17 cells; test: Primary human Th17 cell assay (IL-17A release); type: cell-based
Protocol: Peripheral blood mononuclear cells were isolated from heparin treated human whole blood from healthy donors by density gradient centrifugation. […] On day 4, supernatants were collected and IL-17A was measured using a Human IL-17A HTRF Assay kit (Cisbio/PerkinElmer, MA, USA) according to the manufacturer’s protocol.
Genedata Screener® software (Genedata, Inc., Basel, Switzerland) was used for data normalization, curve fitting and calculation of IC50 for IL-17A inhibition as well as for cell viability. Raw data from the Human IL-17A HTRF Assay and CellTiter-Glo® Luminescent Cell Viability assay was transformed to % effect according to the formula:
Compound % effect = 100*[(X-min)/(max-min)],
where X represents the effect in the presence of test compound. […] For the cell viability calculations, 2-(2,2-dicyclohexylethyl)piperidine at 10 μM was used as maximal toxicity control while DMSO was used as minimal toxicity control. A four-parameter logistic smart fit method in the Analyser application of the Genedata® Screener software was used for curve fitting of the % effect data and IC50 calculation.

[4] = tested on: mouse thymocytes; test: Mouse thymocyte apoptosis assay ex vivo; type: cell-based; settings: 26 hours, AnnexinV and 7AAD staining
Protocol: The thymus from a female C57BL/6NCrl (Charles River) mouse aged around 7 weeks was dissected out after giving the mouse a lethal i.p. injection of penthobarbital. Single cell suspension of thymocytes was prepared by disrupting the thymus through a 70 μm cell strainer with the top of a sterile 5 ml syringe plunger in DPBS (without Ca/Mg). Cells were filtered through a 40 μm cell strainer and washed in serum-free media before being resuspended in complete media (RPMI1640 with L-glutamine supplemented with 10% heat inactivated foetal bovine serum (FBS) (Gibco/Invitrogen) and 50 μM 2-mercaptoethanol (Gibco/Invitrogen).
Cells were seeded at 500 000 cells/well in 96-well plates (U-bottom, cat #3799, Corning, MA, USA) in the presence of compounds or DMSO and cultured for 26 hours (37°C, 5% CO2). The thymocytes were then washed twice in cold DPBS (without Ca/Mg) and stained with APC AnnexinV (#550475, BD Pharmingen, BD Biosciences, CA, USA) and 7AAD (#559925, BD Pharmingen) in AnnexinV Binding buffer (#556454, BD Pharmingen) for 15 minutes at RT (dark) in order to separate live cells from dead, early apoptotic and late apoptotic cells when analysed on the BD Accuri C6 (BD Biosciences, CA, USA).
The compound effect on the percentage of surviving cells relative to the DMSO control were calculated using the following formula; […]

[5] = Mouse plasma protein binding; type: in vitro ADME
Text: Table 1 Overview of compound potencies in multiple assays. | column: 1; 2; 3; 4; 5; 6

[6] = tested on: IMQ model; settings: cited from earlier work
[7] = tested on: thymocyte numbers; settings: bi-daily administration of 10 mg/kg, after two days; cited from earlier work
[8] = tested on: thymic lymphomas; settings: rats; cited from earlier work
[9] = tested on: thymic lymphomas; settings: mice; cited from earlier work
[10] = target: T3, recombinant human RORγt LBD (Homo sapiens, UniProt P51449); test: Human RORγt radioligand competition binding assay
T3 sequence (P51449 258-518): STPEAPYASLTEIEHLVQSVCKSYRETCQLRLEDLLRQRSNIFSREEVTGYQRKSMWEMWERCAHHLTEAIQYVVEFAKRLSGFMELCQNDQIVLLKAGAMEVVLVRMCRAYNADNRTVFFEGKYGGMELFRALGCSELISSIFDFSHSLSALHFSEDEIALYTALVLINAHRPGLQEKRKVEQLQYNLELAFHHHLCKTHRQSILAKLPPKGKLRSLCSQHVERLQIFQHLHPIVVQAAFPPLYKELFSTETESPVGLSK
Protocol: The assay was run in white polystyrene flat-bottom 384-well plates (Greiner, cat. No. 781075). Assays were carried out in 40 μl reaction volumes. A concentration range of test ligands in 0.4 μl of DMSO were added to assay plates using an acoustic liquid dispenser. […] Test plates were incubated for 16 hours and read using a LEADseeker (GE Healthcare, USA) Multimodality imaging instrument.
as §1, §2, §3, §4

[11] = tritiated ligand, used for Ki calculation

## CC(=O)N1Cc2cc(S(C)(=O)=O)ccc2[C@@H]1C(=O)Nc1ccc(C(O)(C(F)(F)F)C(F)(F)F)cc1 [Compound 5]
[1]; -LOG10(Concentration) 5
  Mouse ligand binding Response (%): -100.443% and -98.9%
[1]; -LOG10(Concentration) 5.5
  Mouse ligand binding Response (%): -97.044% and -97.709% and -95.886%
[1]; -LOG10(Concentration) 6
  Mouse ligand binding Response (%): -90.54% and -92.979% and -82.118%
[1]; -LOG10(Concentration) 6.5
  Mouse ligand binding Response (%): -75.979% and -75.927%
[1]; -LOG10(Concentration) 7
  Mouse ligand binding Response (%): -66.593% and -61.493% and -41.548%
[1]; -LOG10(Concentration) 7.5
  Mouse ligand binding Response (%): -41.39% and -32.816% and -24.196%
[1]; -LOG10(Concentration) 8
  Mouse ligand binding Response (%): -17.738% and -1.711% and -32.373%
[1]; -LOG10(Concentration) 8.5
  Mouse ligand binding Response (%): -14.117% and 14.175%
[1]; -LOG10(Concentration) 9
  Mouse ligand binding Response (%): -4.804% and 10.02% and -17.221%
[1]; -LOG10(Concentration) 9.5
  Mouse ligand binding Response (%): -4.804% and 5.051% and -11.899%
[2]; -LOG10(Concentration) 4.5
  RORa agonism Response (%): 151.862%
  RORa inverse agonism Response (%): 135.32%
[2]; -LOG10(Concentration) 5
  RORa agonism Response (%): 149.498%
  RORa inverse agonism Response (%): 141.906%
[2]; -LOG10(Concentration) 5.5
  RORa agonism Response (%): 136.244%
  RORa inverse agonism Response (%): 137.911%
[2]; -LOG10(Concentration) 6
  RORa agonism Response (%): 110.728%
  RORa inverse agonism Response (%): 125.139%
[2]; -LOG10(Concentration) 6.5
  RORa agonism Response (%): 68.027%
  RORa inverse agonism Response (%): 92.31%
[2]; -LOG10(Concentration) 7
  RORa agonism Response (%): 28.348%
  RORa inverse agonism Response (%): 46.105%
[2]; -LOG10(Concentration) 7.5
  RORa agonism Response (%): 7.215%
  RORa inverse agonism Response (%): 12.144%
[2]; -LOG10(Concentration) 8
  RORa agonism Response (%): 11.627%
  RORa inverse agonism Response (%): 1.673%
[2]; -LOG10(Concentration) 8.5
  RORa agonism Response (%): 1.827%
  RORa inverse agonism Response (%): -4.289%
[2]; -LOG10(Concentration) 9
  RORa agonism Response (%): 1.839%
  RORa inverse agonism Response (%): -3.197%
[3]; -LOG10(Concentration) 6.5, single points per experiment
  Human Th17 Response (%): -83.16% and -87.655% and -78.367% and -82.722%
[3]; IL-17A in supernatants after 4 days
  Human IL-17A in Th17 cells: 7.8 ± 0.2 (45)
[4]
  Thymocyte apoptosis: 6.6 ± 0.1 (4)
[5]
  Mouse PPB (% unbound): 18.6 (1) %
[6]; IMQ model
  ear thickness: significantly but partially reduced
[6]; repeated daily dosing of 15 mg/kg
  effect in the IMQ model: a larger effect
[7]
  effect on thymocyte numbers: did not have a significant effect

## C[C@H]1C[C@H](C(=O)O)CC[C@H]1C(=O)N1CC[C@@]2(S(=O)(=O)c3ccc(F)cc3)c3ccc(C(F)(C(F)(F)F)C(F)(F)F)cc3CC[C@@H]12 [BMS-986251]
[8]
  thymic lymphomas: thymic lymphomas
[9]
  thymic lymphomas: thymic lymphomas

## CCS(=O)(=O)c1ccc(CC(=O)Nc2cc(-c3ccccc3COC)cs2)cc1 [2-(4-(ethylsulfonyl)phenyl)-N-(4-(2-(methoxymethyl)phenyl)thiophen-2-yl)acetamide, reference compound]
[10]; the ligand that is used tritiated as radioligand, n = 6
  IC50: 47.9 nM
[10]; [11]
  Kd: 17 nM
[1]; the ligand that is used tritiated as radioligand, n = 3
  IC50: 123 nM
[1]; [11]
  Kd: 45 nM
